Test results: patent US8513250B2 (Laboratoire Biodim, priority 2007, dated 2013)
Where a name gives a salt, the structure may show the parent alone.

molecular target: T1, DltA enzyme (Streptococcus agalactiae serotype III, UniProt Q8VM67); experiment: DltA HTS assays (luminescent / fluorescent), inhibition of DltA enzymatic activity in vitro; type: biochemical, S. agalactiae; conditions: IC50 (μM), Table 1; DltA inhibition, HTS assays of method 1
T1 construct: His-tag (from pET100 vector) (N); made in house; host or cells: E. coli BL21 (DE3) Star
T1 sequence (Q8VM67 1-511): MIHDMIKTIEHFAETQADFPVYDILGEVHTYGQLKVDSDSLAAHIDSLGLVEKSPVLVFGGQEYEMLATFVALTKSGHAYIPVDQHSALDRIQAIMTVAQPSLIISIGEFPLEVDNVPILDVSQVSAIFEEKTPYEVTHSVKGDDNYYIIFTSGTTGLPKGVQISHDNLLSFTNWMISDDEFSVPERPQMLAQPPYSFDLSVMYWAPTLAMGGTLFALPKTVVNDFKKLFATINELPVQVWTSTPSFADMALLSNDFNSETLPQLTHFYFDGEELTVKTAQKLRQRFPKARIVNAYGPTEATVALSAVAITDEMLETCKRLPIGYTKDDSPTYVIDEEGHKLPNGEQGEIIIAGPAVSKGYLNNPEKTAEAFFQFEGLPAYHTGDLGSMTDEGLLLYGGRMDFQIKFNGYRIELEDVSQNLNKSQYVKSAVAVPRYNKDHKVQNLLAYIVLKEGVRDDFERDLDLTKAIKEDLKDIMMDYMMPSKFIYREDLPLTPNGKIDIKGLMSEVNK
Excerpt: The compounds effect on DltA enzyme has been based on the measure of the inhibition of DltA activity in vitro.
To this end, a recombinant protein Dlta was expressed and purified after cloning of the gene of S. agalatiae as described below:
Methods 1: DltA HTS Assays
The assay described below makes use of dithiothreitol (DTT) instead of DltC as reactive thiol in the catalyzed reaction. In fact, the inventors have shown that DTT, but also Coenzyme A and N-Acetylcysteamine are all thiols able to replace efficiently DltC. In addition, contrary to the prior art, radioactivity is not used: all the assays are based either on luminescent ATP detection, or on fluorescent AMP detection. They are easily amenable to miniaturized formats and fast readouts as required by HTS.
The assay buffer “AB” contains 50 mM Hepes pH8.0, 10 mM MgCl2, 50 mM KCl, 0.012% Triton-X100. The following components are added in a white polystyrene Costar plate up to a final volume of 30 μL: 3 μL DMSO, or inhibitor dissolved in DMSO and 27 μL DltA enzyme and DTT in AB. After 30 min of pre-incubation at room temperature, 30 μL of Substrates mix in AB are added in each well to a final volume of 60 μL. This reaction mixture is then composed of 10 nM DltA (produced in house from S. agalactiae), 0.5 mM D-Alanine (Sigma), 0.5 μM ATP (Sigma) and 1 mM DTT (Biochemika) in assay buffer. After 90 min of incubation at room temperature, 30 μL of the revelation mix are added to a final volume of 90 μL, including the following constituents at the respective final concentrations: 2 nM luciferase (Sigma), 30 μM D-luciferin (Sigma), 100 μM N-acetylcysteamine (Aldrich). Luminescence intensity is immediately measured on an Analyst-HT (Molecular Devices) and converted into inhibition percentages. For IC50 (Inhibitory Concentration 50%) determinations, the inhibitor is added at 6 to 10 different concentrations, and the related inhibitions are fitted to a classical langmuir equilibrium model using XLFIT (IDBS).
The assay buffer “AB” contains 50 mM Hepes pH8.0, 10 mM MgCl2, 50 mM KCl, 0.012% Triton-X100. The following components are added in a black polystyrene Costar plate up to a final volume of 50 μL: 5 μL DMSO, or inhibitor dissolved in DMSO and 45 μL DltA enzyme and DTT in AB. After 30 min of pre-incubation at room temperature, 50 μL of Substrates-revelation mix in AB are added in each well to a final volume of 100 μL. This reaction mixture is then composed of 5 nM DltA (produced in house from S. agalactiae), 0.5 mM D-Alanine (Sigma), 10 μM ATP (Sigma), 1 mM DTT (Biochemika), 10 nM Adenylate kinase (produced in house), 5 u/mL Pyruvate Kinase (Sigma), 50 μM phosphoenolpyruvate (Sigma), 5 u/mL Lactate deshydrogenase (Sigma) and 3 μM NADH (Sigma) in assay buffer. Fluorescence intensity of NADH (λex=360 nm, λem=520 nm) is immediately measured kinetically by a Fluostar Optima (BMG). Inhibition percentages are derived from fitted initial velocities. For IC50 determinations, the inhibitor is added at 6 to 10 different concentrations, and the related inhibitions are fitted to a classical langmuir equilibrium model using XLFIT (IDBS). FIG. 2 represents the data obtained using this method.
The capacity of compounds to inhibit DltA enzymatic activity was assessed using the DltA HTS assays described in method 1.

**Q.** With `CS(=O)(=O)Nc1ccc(-c2cnc3c(NCCCO)nc4cc(C(F)(F)F)ccc4n23)cc1` [Example 23, N-{4-[4-(3-Hydroxy-propylamino)-7-trifluoromethyl-imidazo[1,2-a]quinoxalin-1-yl]phenyl}-methanesulfonamide Sodium salt] as the molecule, how does the IC50 read?
**A.** Its IC50 is 0.21 µM.

same assay, conditions: Table 1; DltA inhibition, HTS assays of method 1; read-out: IC50

**Q.** For `OCCCNc1nc2cc(F)c(F)cc2n2ccnc12` [Example 57, 3-[(7,8-difluoroimidazo[1,2-a]quinoxalin-4-yl)amino]propan-1-ol], which IC50 is on record?
**A.** Its IC50 is 57 µM.

**Q.** How did the IC50 turn out when `COc1ccc(-c2cnc3c(NCCCO)nc4cc(C(F)(F)F)ccc4n23)cc1` [Example 10, 3-{[1-(4-methoxyphenyl)-7-(trifluoromethyl)imidazo[1,2-a]quinoxalin-4-yl]amino}propan-1-ol] was run?
**A.** Its IC50 is 0.23 µM.

**Q.** With `OCCCNc1nc2cc(C(F)(F)F)ccc2n2c(-c3cn[nH]c3)cnc12` [Example 17, 3-{[1-(1H-pyrazol-4-yl)-7-(trifluoromethyl)imidazo[1,2-a]quinoxalin-4-yl]amino}propan-1-ol] as the molecule, how does the IC50 read?
**A.** The IC50 was 0.51 µM.

**Q.** With `CC(=O)N1CC=C(c2cnc3c(NCCCO)nc4cc(C(F)(F)F)ccc4n23)CC1` [Example 28, 1-{4-[4-(3-hydroxy-propylamino)-7-trifluoromethyl-imidazo[1,2-a]quinoxalin-1-yl]-3,6-dihydro-2H-pyridin-1-yl}-ethanone] as the molecule, how does the IC50 read?
**A.** The IC50 was 0.65 µM.

**Q.** For `COc1cc(-c2cnc3c(NCCCO)nc4cc(C(F)(F)F)ccc4n23)ccc1N` [Example 21], which IC50 is on record?
**A.** The IC50 was 0.27 µM.

**Q.** `OCCCNc1nc2cc(C(F)(F)F)ccc2n2c(-c3[nH]ncc3Cl)cnc12` [Example 38, 3-({1-(4-chloro-1H-pyrazol-5-yl)-7-(trifluoromethyl)imidazo[1,2-a]quinoxalin-4-yl}amino)propan-1-ol] was tested. Which IC50 did it give?
**A.** Its IC50 is 0.0135 µM.

**Q.** Which IC50 does the source give for `OCCCNc1nc2cc(C(F)(F)F)ccc2n2c(C3=CCNCC3)cnc12` [Example 27, 3-[1-(1,2,3,6-tetrahydro-pyridin-4-yl)-7-trifluoromethyl-imidazo[1,2-a]quinoxalin-4-ylamino]-propan-1-ol] here?
**A.** The IC50 was 2.6 µM.

**Q.** `OCCCNc1nc2cc(C(F)(F)F)ccc2n2c(CO)cnc12` [Example 42, 3-{[1-(hydroxymethyl)-7-(trifluoromethyl)imidazo[1,2-a]quinoxalin-4-yl]amino}propan-1-ol] was tested. Which IC50 did it give?
**A.** The IC50 was 1.1 µM.

**Q.** Which IC50 does the source give for `OCCCNc1nc2cc(C(F)(F)F)ccc2n2c(-c3cc(-c4ccccc4)n[nH]3)cnc12` [Example 32, 3-({1-[3-phenyl-1H-pyrazol-5-yl]-7-(trifluoromethyl)imidazo[1,2-a]quinoxalin-4-yl}amino)propan-1-ol] here?
**A.** Its IC50 is 0.042 µM.

**Q.** `CS(=O)(=O)N1CC=C(c2cnc3c(NCCCO)nc4cc(C(F)(F)F)ccc4n23)CC1` [Example 29, 3-[1-(1-methanesulfonyl-1,2,3,6-tetrahydro-pyridin-4-yl)-7-trifluoromethyl-imidazo[1,2-a]quinoxalin-4-ylamino]-propan-ol] was tested. Which IC50 did it give?
**A.** Its IC50 is 0.41 µM.

**Q.** With `OCCCNc1nc2cc(C(F)(F)F)ccc2n2c(-c3cc(O)n[nH]3)cnc12` [Example 37, 3-({1-(3-hydroxy-1H-pyrazol-5-yl)-7-(trifluoromethyl)imidazo[1,2-a]quinoxalin-4-yl}amino)propan-1-ol] as the molecule, how does the IC50 read?
**A.** Its IC50 is 0.16 µM.

**Q.** Which IC50 does the source give for `O=P(O)(O)OCCCNc1nc2cc(C(F)(F)F)ccc2n2c(-c3ccn[nH]3)cnc12` [Example 58, Phosphoric acid mono-{3-[1-(2H-pyrazol-3-yl)-7-trifluoromethyl-imidazo[1,2-a]quinoxalin-4-ylamino]-propyl}ester, disodium salt] here?
**A.** Its IC50 is 19 µM.

**Q.** How did the IC50 turn out when `Nc1ncc(-c2cnc3c(NCCCO)nc4cc(C(F)(F)F)ccc4n23)cn1` [Example 20, 3-{[1-(2-aminopyrimidin-5-yl)-7-(trifluoromethyl)imidazo[1,2-a]quinoxalin-4-yl]amino}propan-1-ol] was run?
**A.** Its IC50 is 0.86 µM.

**Q.** How did the IC50 turn out when `C=Cc1cnc2c(NCCCO)nc3cc(C(F)(F)F)ccc3n12` [Example 22, 3-{[7-(trifluoromethyl)-1-vinylimidazo[1,2-a]quinoxalin-4-yl]amino}propan-1-ol] was run?
**A.** The IC50 was 1 µM.
